Results on 45 compounds are retold here after patent US7772260B2, “Imidazo[2,1-b]-1,3,4-thiadiazole sulfonamides” (Aegera Therapeutics Inc., priority 2001, dated 2010).

pIC50: −log10 of the molar value. Counter-ions that a name gives are not always drawn.

For the first test, the system named is SCG neurons. In words: cells. The test is classed as cell-based, Sprague Dawley rats. The settings on record: Rattus norvegicus, Neuron, 48 h, read-out: IC(50), protection of SCG neurons from Taxol killing. As to the method:
Taxol™ is regularly used in breast cancer chemotherapy. In cancer cells Taxol™ binds to the cyto-skeletal protein tubulin, thereby inhibiting normal microtubular assembly and inducing cellular apoptosis. Despite its potency as an anti-tumour agent, Taxol™ is also toxic to neurons, inducing dose limiting peripheral neuropathies. The addition of Taxol™ (100 ng/mL) to cultured SCG neurons induces the degradation or loss of upwards of 80% of the neurons.
FIG. 1 illustrates the protection provided by compound 1 (referred to here as AEG3482) against Taxol™ induced killing. PI Sprague Dawley rat SCG neurons were cultured and incubated with NGF (50 ng/mL) for 5 days.
Regarding `CC1(C)CCC(C)(C)c2cc(-c3cn4nc(S(N)(=O)=O)sc4n3)ccc21` [Compound 56, 6-(5,5,8,8-Tetramethyl-5,6,7,8-tetrahydronaphthalen-2-yl)imidazo[2,1-b]-1,3,4-thiadiazole-2-sulfonamide], the pIC50 is 5.52. As for `Cc1cc2c(cc1-c1cn3nc(S(N)(=O)=O)sc3n1)C(C)(C)CCC2(C)C` [Compound 57], the pIC50 is 5.22.

The test is the same for the next values; noted with them: Rattus norvegicus, Neuron; Taxol™ (50 ng/mL), viability 48 hours later, MTS; read-out: IC(50), protection of SCG neurons from Taxol killing.
In the case of `[N-]=[N+]=Nc1c(F)c(F)c(-c2cn3nc(S(N)(=O)=O)sc3n2)c(F)c1F` [Compound 151, 6-(4-Azido-2,3,5,6-tetraflourophenyl)imidazo[2,1-b]-1,3,4-thiadiazole-2-sulfonamide], the pIC50 is 5.70.

Take `NS(=O)(=O)c1nn2cc(C34CC5CC(CC(C5)C3)C4)nc2s1` [Compound 60, 6-(1-adamantyl)imidazo[2,1-b]-1,3,4-thiadiazole-2-sulfonamide]: the pIC50 was 4.60. Still for that read-out and setting: the same measure for `NS(=O)(=O)c1nn2cc(-c3ccc(OCCOCc4ccccc4)cc3)nc2s1` [Compound 31, 6-(4′-(2-Benzyloxyethoxy)phenyl)-imidazo[2,1-b]-1,3,4-thidiazole-2 sulfonamide]: 5.00; for `NS(=O)(=O)c1nn2cc(-c3cc(-c4ccccc4)no3)nc2s1` [Compound 117, 6-(3-Phenylisoxazol-5-yl)imidazo[2,1-b]-1,3,4-thiadiazole-2-sulfonamide]: 5.52. Same read-out and setting: the same measure for `NS(=O)(=O)c1nn2cc(-c3cnccn3)nc2s1` [Compound 108]: 5.30; for `CN(C)S(=O)(=O)c1nn2cc(-c3ccc4ccccc4c3)nc2s1` [Compound 147, 6-(2-Naphthyl)imidazo[2,1-b]-1,3,4-thiadiazole-2-N,N-dimethylsulfonamide]: 4.77. Same read-out and setting: the same measure for `NS(=O)(=O)c1nn2cc(-c3ccc4c(c3)NC(=O)CO4)nc2s1` [Compound 110]: less than 4.52; for `COC(=O)COc1ccc(-c2cn3nc(S(N)(=O)=O)sc3n2)cc1` [Compound 101]: less than 4.52; for `NS(=O)(=O)c1nn2cc(-c3ccncc3)nc2s1` [Compound 107, 6-(4-Pyridyl)imidazo[2,1-b]-1,3,4-thiadiazole-2-sulfonamide]: 4.70. Regarding `NS(=O)(=O)c1nn2cc(-c3ccc(-c4ccccc4)s3)nc2s1` [Compound 113, 6-(5-Phenylthiophen-2-yl)-imidazo[2,1-b]-1,3,4-thiadiazole-2-sulfonamide], the pIC50 was 5.15. Still for that read-out and setting: with `NS(=O)(=O)c1nn2c(Sc3ccccc3)c(-c3ccc4ccccc4c3)nc2s1` [Compound 135, 5-Thiophenyl-6-(2-naphthyl)imidazo[2,1-b]-1,3,4-thiadiazole-2-sulfonamide] the figure was 5.15; with `NS(=O)(=O)c1nn2cc(-c3csc4ccccc34)nc2s1` [Compound 116, 6-(Benzo[b]thiophen-3-yl)imidazo[2,1-b]-1,3,4-thiadiazole-2-sulfonamide], 5.15; with `NS(=O)(=O)c1nn2cc(-c3ccc(C(F)(F)F)cc3)nc2s1` [Compound 52, 6-(4-(Trifluoromethyl)phenyl)imidazo[2,1-b]-1,3,4-thiadiazole-2-sulfonamide], 5.52. In the case of `CN(C)S(=O)(=O)c1nn2cc(-c3c(F)c(F)c(N=[N+]=[N-])c(F)c3F)nc2s1` [Compound 152, 6-(4-azido-2,3,5,6-pentafluorophenyl)imidazo[2,1-b]-1,3,4-thiadiazole-2-N,N-dimethylsulfonamide], the pIC50 is 5.70. With `CC(=O)N[C@@H](C)c1ccc(-c2cn3nc(S(N)(=O)=O)sc3n2)cc1` [Compound 58, 6-(4-(S-1-acetamidoethyl)phenyl)imidazo[2,1-b]-1,3,4-thiadiazole-2-sulfonamide], the pIC50 is 4.52. As for `NS(=O)(=O)c1nn2c(Cl)c(-c3ccc(-c4ccccc4)cc3)nc2s1` [Compound 131, 5-Chloro-6-(biphenyl)imidazo[2,1-b]-1,3,4-thiadiazole-2-sulfonamide hydrobromide], the pIC50 is 5.52. On the same count and under the same terms, the same measure for `Cc1nc(C)c(-c2cn3nc(S(N)(=O)=O)sc3n2)s1` [Compound 122, 6-(2,4-Thiaxol-5-yl)imidazo[2,1-b]-1,3,4-thiadiazole-2-sulfonamide]: 5.10. On the same count and under the same terms, the same measure for `NS(=O)(=O)c1nn2c(Br)c(C(F)(F)F)nc2s1` [Compound 134, 5-Bromo-6-trifluoromethylimidazo[2,1-b]-1,3,4-thiadiazole-2-sulfonamide]: 6.00.

For the compound `COc1ccc2ccc(-c3cn4nc(S(N)(=O)=O)sc4n3)cc2c1Br` [Compound 63, 6-(8-Bromo-7-methoxylnaphth-2-yl)imidazo[2,1-b]-1,3,4-thiadiazole-2-sulfonamide], the pIC50 was 5.15.

`CCN(CC)S(=O)(=O)c1nn2cc(-c3cccc(OC)c3)nc2s1` [Compound 141]: the pIC50 is less than 4.52. Same read-out and setting: the same measure for `CN(C)S(=O)(=O)c1nn2cc(-c3ccc(Br)cc3)nc2s1` [Compound 143, 6-(4-Bromophenyl)imidazo[2,1-b]-1,3,4-thiadiazole-2-N,N-dimethylsulfonamide]: 5.00; for `NS(=O)(=O)c1nn2cc(-c3cccc4ccccc34)nc2s1` [Compound 61, 6-(1-Naphthyl)imidazo[2,1-b]-1,3,4-thiadiazole-2-sulfonamide]: 5.00. On to `NS(=O)(=O)c1nn2cc(-c3cc(C(F)(F)F)cc(C(F)(F)F)c3)nc2s1` [Compound 54, 6-(3,5-di(trifluoromethyl)phenyl)imidazo[2,1-b]-1,3,4-thiadiazole-2-sulfonamide], for which the pIC50 was 5.00.

In the case of `Cc1onc(-c2ccccc2)c1-c1cn2nc(S(N)(=O)=O)sc2n1` [Compound 118, 6-(5-Methyl-3-phenylisoxazol-4-yl)imidazo[2,1-b]-1,3,4-thiadiazole-2-sulfonamide], the pIC50 is 4.77. On to `Nc1nnc(Sc2c(-c3ccc4ccccc4c3)nc3sc(S(N)(=O)=O)nn23)s1` [Compound 136], for which the pIC50 was 5.30. On the same count and under the same terms, the same measure for `NS(=O)(=O)c1nn2c(Br)c(-c3ccc(Br)cc3)nc2s1` [Compound 128, 5-Bromo-6-(4-bromophenyl)imidazo[2,1-b]-1,3,4-thiadiazole-2-sulfonamide hydrobromide]: 5.70; for `COCCOCCOc1ccc(-c2cn3nc(S(N)(=O)=O)sc3n2)cc1` [Compound 30]: 5.00. As to `NS(=O)(=O)c1nn2cc(-c3ccc(B(O)O)cc3)nc2s1` [Compound 71], the pIC50 is less than 4.52. With `NS(=O)(=O)c1nn2cc(-c3ccc(N4CCCCC4)cc3)nc2s1` [Compound 67, 6-(4-Piperidinophenyl)imidazo[2,1-b]-1,3,4-thiadiazole-2-sulfonamide], the pIC50 is 5.00. On to `CNS(=O)(=O)c1nn2cc(-c3c(F)c(F)c(F)c(F)c3F)nc2s1` [Compound 138, 6-(2,3,4,5,6-pentafluorophenyl)imidazo[2,1-b]-1,3,4-thiadiazole-2-N-methylsulfonamide], for which the pIC50 is 5.70.

On to `NS(=O)(=O)c1nn2c(Cl)c(-c3ccccc3)nc2s1` [Compound 123, 5-Chloro-6-phenyl-imidazo[2,1-b]-1,3,4-thiadiazole-sulfonamide], for which the pIC50 was less than 4.52. Turning to `NS(=O)(=O)c1nn2cc(-c3ccc([N+](=O)[O-])s3)nc2s1` [Compound 114, 6-(5-Nitro-2-thiophenyl)-imidazo[2,1-b]-1,3,4-thiadiazole-2-sulfonamide hydrobromide], the pIC50 was 5.15.

In the case of `CN(C)S(=O)(=O)c1nn2c(Br)c(-c3ccc(Br)cc3)nc2s1` [Compound 144, hydrobromide], the pIC50 is 4.82. Still for that read-out and setting: with `CC(C)(C)c1cc(-c2cn3nc(S(N)(=O)=O)sc3n2)cc(C(C)(C)C)c1O` [Compound 55, 6-(3,4-Di-tert-butyl-4-hydroxyphenyl)imidazo[2,1-b]-1,3,4-thiadiazole-2-sulfonamide] the figure was 4.82; with `NS(=O)(=O)c1nn2cc(-c3nccs3)nc2s1` [Compound 121, 6-(Thiaxol-2-yl)imidazo[2,1-b]-1,3,4-thiadiazole-2-sulfonamide], 5.70; with `Cc1ccc(C23CC4CC(CC(C4)C2)C3)cc1-c1cn2nc(S(N)(=O)=O)sc2n1` [Compound 51], 5.30. Regarding `NS(=O)(=O)c1nn2cc(-c3ccc(N4CCOCC4)cc3)nc2s1` [Compound 68, 6-(4-Morpholinophenyl)imidazo[2,1-b]-1,3,4-thiadiazole-2-sulfonamide], the pIC50 is 5.15. On the same count and under the same terms, the same measure for `NS(=O)(=O)c1nn2c(Br)c(-c3ccccc3)nc2s1` [Compound 124, 5-Bromo-6-phenyl-imidazo[2,1-b]-1,3,4-thiadiazole-2-sulfonamide hydrobromide]: 5.52. In the case of `NS(=O)(=O)c1nn2c(Br)c(-c3ccccn3)nc2s1` [Compound 125, 5-Bromo-6-(2-pyridyl)imidazo[2,1-b]-1,3,4-thiadiazole-2-sulfonamide hydrobromide], the pIC50 is 5.52.

`Cc1c(-c2cn3nc(S(N)(=O)=O)sc3n2)cnn1-c1ccccc1` [Compound 120, 6-(5-methyl-1-phenyl-1H-pyrazol-4-yl)imidazo[2,1-b]-1,3,4-thiadiazole-2-sulfonamide]: the pIC50 was 5.15.

The same test, now with this note: concentrations as high as 50 μM.
On to `CC(=O)Nc1nnc(S(N)(=O)=O)s1` [acetazolamide, reference compound], for which the “inhibition of Taxol™ induced killing of SCGs” value (from here on “inhibition”) was “failed to significantly inhibit”. On to `CCN[C@H]1C[C@H](C)S(=O)(=O)c2sc(S(N)(=O)=O)cc21` [Dorzolamide, reference compound], for which the “inhibition” value is recorded as “failed to significantly inhibit”.

Take `Nc1ccc(S(=O)(=O)Nc2nnc(S(N)(=O)=O)s2)cc1` [aminobenzolamide, reference compound]: the “inhibition” value is on record as “failed to significantly inhibit”.
